# Read-outs that look alike come from different tables or passages of the source.
# System: MOLM-14 cells
# Test: WST-1 cell proliferation assay, MOLM-14
# Type: cell-based, human
# Conditions: Homo sapiens
# Description: Cell lines were seeded into 96-well plates the afternoon prior to treatment. Approximately 18 hours later, bis and mono-aziridine dimeric naphthoquinone compounds were semi-serially diluted in dimethyl sulfoxide (DMSO) and then growth medium, and added to cells. Plates were incubated for 72 hours prior to addition of WST-1 (Promega®). Plates were read after 4 additional hours of incubation at 37° C. using a Bio-Tek Synergy® HT plate reader (Bio-Tek®). Data were analyzed and graphed using GraphPad Prism® Software (Graph Pad®).
# Primary AML cells from patients and cell lines were seeded into 96-well plates the afternoon prior to treatment. Eighteen hours later, amino-dimeric naphthoquinone Compounds 106, 101, and 114 were semi-serially diluted in dimethyl sulfoxide (DMSO) and then growth medium, and added to the cells. In order to quantitate proliferation of metabolically active cells, plates were incubated for 72 hours for cell lines and 48 hours for primary AML cells prior to addition of water-soluble tetrazolium (WST-1) (Clontech®). Plates were read after four additional hours of incubation at 37° C. using a Bio-Tek Synergy® HT plate reader (Bio-Tele®). Data were analyzed and graphed using GraphPad Prism® Software (GraphPad®). IC50 was defined as the concentration that decreases viable cell numbers by 50%. IC50 values were calculated as mean±standard deviation from at least two independent experiments. If availability of primary blasts was limited, the IC50 was obtained from a single experiment.
# To investigate antiproliferative activity of amino-dimeric naphthoquinones against AML cells, an MTT-like cell proliferation assay was performed in the AML cell lines using WST-1 (water soluble tetrazolium salts; Promega®). MOLM-14 and AML-D cells, as well as normal hematopoietic bone marrow cells from a healthy donor, were exposed to a range of concentrations of Compound 101. Human leukemia cells were cultured in the presence of the compound for 72 hours (48 hours for primary cells) and WST-1 reagent was then added. The cells then were monitored for cell growth or the number of cells proliferating and the IC50 calculated. The IC50 is the concentration at which 50% of the cells are not proliferating compared to control cells treated with vehicle. See FIG. 2A, FIG. 2B, and FIG. 2C for representative graphs of these IC50 determinations.
smiles,measurement,setting,value
"O=C1C(C2=C(N3CC3)C(=O)c3ccccc3C2=O)=C(N2CC2)C(=O)c2ccccc21 [Compound 101, 3,3′-di(aziridin-1-yl)-[2,2′-binaphthalene]-1,1 4,4′-tetrone]",IC50,"MOLM-14, 72 h, 72 hours, WST-1, read-out: IC50 against MOLM-14 cells",150 to 200 nM
same,IC50,"MOLM-14, Example 5 text, read-out: IC50 MOLM-14",180 ± 60 nM
same,IC50,"MOLM-14, Table 5, read-out: IC50 MOLM-14 (n)",250 ± 200 nM

# — patent US11459313B2, “Aziridinyl and amino dimeric naphthoquinone compounds and use for acute myeloid leukemia” (University of Maryland, Baltimore, priority 2016, dated 2022)
